Assay results published in patent US20230241121A1, “COMPOSITIONS AND METHODS RELATING TO EXOSOMES DERIVED FROM HUMAN DERMAL PAPILLA CELLS” (NORTH CAROLINA STATE UNIVERSITY, priority 2020, published 2023).

How the values were obtained:
β-catenin = assay: Immunostaining of β-catenin in dorsal skin hair follicles ten days after treatment; assay type: in vivo, C57BL/6 mice; conditions: treated side, day 10
Description: (§1) Animals and in vivo studies. Seven-week-old male C57BL/6 mice were purchased from Jackson laboratory and allowed to adapt to their new environment for 1 week. Hair was removed by using depilatory cream to observe the pink skin. Then, animals were randomly divided into groups (n=5) randomly to investigate hair regrowth. Minoxidil was topically applied daily as a positive control. Other treatments were given subcutaneously. All work with mice was in accordance with IACUC. Cell treatment dose: 1.0×10^6 cells in 200 μL PBS were subcutaneously injected into 10 spots (20 μL per site) on the left side of the dorsal skin. Exosome treatment dose: 2.0×10^9 exosomes in 200 μL PBS were subcutaneously injected to 10 spots (20 μL per site) on the left side of the backs. Negative control, miR-218-5p mimics and inhibitors (Sigma-Aldrich): administered according to the protocol provided by in vivo-jetPEI™ (Polyplus transfection). In brief, mice received ten injections per depilated dorsal skin. 400 ng miRNA mimic or inhibitor was dissolved in 90 μl 5% glucose (w/v) solution, and then 10 μl in vivo-jet PEI solution was added. Vortex-mix the solution immediately and incubate for 15 minutes at room temperature before injection. Control groups were injected with mimic control.
(§2) Skin tissue histology. Mice were euthanized and the whole dorsal skin was removed. […]

CD133 = assay: Immunostaining of CD133 in dorsal skin hair follicles ten days after treatment; assay type: in vivo, C57BL/6 mice; conditions: treated side, day 10
Description: as §1, §2

Ki67 = assay: Immunostaining of Ki67 in dorsal skin hair follicles ten days after treatment; assay type: in vivo, C57BL/6 mice; conditions: day 10
Description: as §1, §2

depilated C57BL/6 mice = assay: Dorsal hair regrowth in depilated mice; assay type: in vivo
Description: Animals and in vivo studies. Seven-week-old male C57BL/6 mice were purchased from Jackson laboratory and allowed to adapt to their new environment for 1 week. Hair was removed by using depilatory cream to observe the pink skin. Then, animals were randomly divided into groups (n=5) randomly to investigate hair regrowth. Minoxidil was topically applied daily as a positive control. Other treatments were given subcutaneously. All work with mice was in accordance with IACUC. Cell treatment dose: 1.0×10^6 cells in 200 μL PBS were subcutaneously injected into 10 spots (20 μL per site) on the left side of the dorsal skin. Exosome treatment dose: 2.0×10^9 exosomes in 200 μL PBS were subcutaneously injected to 10 spots (20 μL per site) on the left side of the backs. Negative control, miR-218-5p mimics and inhibitors (Sigma-Aldrich): administered according to the protocol provided by in vivo-jetPEI™ (Polyplus transfection). In brief, mice received ten injections per depilated dorsal skin. 400 ng miRNA mimic or inhibitor was dissolved in 90 μl 5% glucose (w/v) solution, and then 10 μl in vivo-jet PEI solution was added. Vortex-mix the solution immediately and incubate for 15 minutes at room temperature before injection. […]
The state of hair re-growth in depilated mice was photographed on days 0, 10, 15, and 20, and hair growth area was analyzed via morphological observation (FIGS. 3A-3D). […]

Q: Which results are given for Nc1cc(N2CCCCC2)nc(N)[n+]1[O-] [5% minoxidil, minoxidil]?
A: expression of β-catenin (β-catenin positive cells) (β-catenin): 2.3%; expression of CD133 (CD133 positive cells) (CD133): 7.2%; Ki67 signals (Ki67; non-treated side): 7.1%; Ki67 signals (Ki67; treated side): 37.2%; fur coverage (depilated C57BL/6 mice; day 15, treated side): 35%; fur coverage (depilated C57BL/6 mice; day 15, untreated side): 10%
